{"source": "patent US8603545B2", "about": "“Cosmetic and pharmaceutical uses of an extract of a plant belonging to the genus Buchholzia” (BASF Beauty Care Solutions France S.A.S., priority 2004, dated 2013)", "type_in_all_cases": "cell-based", "key": {"human keratinocytes": {"tested_on": "human keratinocytes", "assay": "Inhibition of UVB effect on human keratinocytes", "from_the_text": "Aim of the experiment: Determination of the potential of the tested ingredient to reduce negative effects of UV-B radiation on the survival rate of human keratinocytes. It is well known that UV-B radiation induces a cutaneous inflammation by stimulation of enzymes such as phospholipase A2 (PLA2). This enzyme catalyses the release of arachidonic acid which is a precursor of mediators of inflammation like the prostaglandin PGE2. Moreover this membrane stress results in the release of a cytoplasmic enzyme: lactate dehydrogenase (LDH). • Seeding of human keratinocytes in a growth medium • Incubation for 3 days at 37° C., CO2=5% (atmosphere: 5% carbon dioxide in air) • Exchange of the growth medium by balanced salt solution with a range of concentration of ingredients to be tested • Irradiation of keratinocytes by UV-B: 30 mJ/cm^2 • Incubation for 1 day at 37° C., CO2=5% • Recording of cell number by DNA measurement with a fluorescent probe • Recording of the level of released LDH (by an enzymatic reaction) and released PGE2 (by ELISA method) Results in % against control (average of 2 assays in triplicate): […]"}, "B16 melanocytes": {"tested_on": "B16 melanocytes", "assay": "Inhibition of melanin synthesis, efficacy test on B16 melanocytes", "method": "Aim of the experiment: to evaluate the potential of compounds to lower the melanin synthesis; the compounds have been tested on a cell culture of melanocytes called B16. • Seeding of melanocytes in growth medium • Incubation for 3 days at 37° C., CO2=5% (atmosphere: 5% carbon dioxide in air) • Exchange of the growth medium by a medium with a range of concentration of ingredients to be tested • Incubation for 3 days at 37° C., CO2=5% (atmosphere: 5% carbon dioxide in air) • Recording of Cellular levels of protein by Bradford's method • Recording of melanin by a spectrophotometric method (OD at 475 nm) Results in % against control (average of 2 assays in triplicate): […]"}, "human fibroblasts": {"tested_on": "human fibroblasts", "assay": "Inhibition of UVA effect on human fibroblasts", "method": "Aim of the experiment: Determination of the potential of the tested ingredient to reduce negative effects of UV-A radiation on the survival rate of human fibroblasts.\n• Seeding of human fibroblasts in a growth medium • Incubation for 3 days at 37° C., CO2=5% (atmosphere: 5% carbon dioxide in air) • Exchange of the growth medium by a medium with a range of concentration of ingredients to be tested • Incubation for 2 days at 37° C., CO2=5% • Exchange of the medium with ingredients by a balanced salt solution and UV-A irradiation (20 J/cm^2) • Recording of released MDA levels by spectro-fluorimetry. (MDA (malonaldialdehyde) is a product of oxidative degradation of lipids from cell membranes) • Recording of intracellular proteins by Bradford's method\nResults in % against control (average of 2 assays in triplicate): […]"}, "[1]": {"conditions": "UV-B 30 mJ/cm2, dose 0.03 % w/v"}, "[2]": {"conditions": "UV-A 20 J/cm2, dose 0.0003 % w/v"}}, "data": [{"compound": "CC(=O)Oc1ccccc1C(=O)O", "note": "[Aspirin ®, Aspirin]", "values": [{"measurement": "level of cell number from UV-B irradiated keratinocytes (in words)", "setting": "human keratinocytes", "result": "strongly increased"}, {"measurement": "level of released LDH from UV-B irradiated keratinocytes (in words)", "setting": "human keratinocytes", "result": "strongly decreased"}, {"measurement": "level of released PGE2 from UV-B irradiated keratinocytes (in words)", "setting": "human keratinocytes", "result": "strongly decreased"}, {"measurement": "Cell number", "setting": "human keratinocytes; [1]", "result": 59, "unit": "% against control"}, {"measurement": "Level of released LDH", "setting": "human keratinocytes; [1]", "result": 8, "unit": "% against control"}, {"measurement": "Level of released PGE2", "setting": "human keratinocytes; [1]", "result": 0, "unit": "% against control"}]}, {"compound": "O=c1cc(CO)occ1O", "note": "[kojic acid]", "values": [{"measurement": "rate of released melanin from treated B16 melanocytes (in words)", "setting": "B16 melanocytes", "result": "strongly decreased"}, {"measurement": "Rate of cellular proteins", "setting": "B16 melanocytes; dose 0.03 % w/v", "result": 117, "unit": "% against control"}, {"measurement": "Rate of melanin", "setting": "B16 melanocytes; dose 0.03 % w/v", "result": 34, "unit": "% against control"}]}, {"compound": "Vitamin E", "values": [{"measurement": "rate of released MDA from UV-A irradiated fibroblasts (in words)", "setting": "human fibroblasts", "result": "strongly decreased"}, {"measurement": "Intracellular proteins", "setting": "human fibroblasts; [2]", "result": 103, "unit": "% against control"}, {"measurement": "Rate of released MDA", "setting": "human fibroblasts; [2]", "result": 25, "unit": "% against control"}]}]}
